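Cultured in 96-well plates, cells were exposed to test compound for 48 hours across five concentrations. GI50 is the concentration that inhibits growth by half.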 Activity calls are given as the source filed them. Rule as the data show it: active = GI50 up to about 1.1 µM and inactive = higher.
Columns and labels:
Assay in all cases: inhibition of tumour cell growth, NCI panel, 48 h
[1] = test system: CAKI-1
[2] = test system: DU-145
[3] = test system: HCT-116
[4] = test system: HT-29
[5] = test system: Hs-578T
[6] = test system: IGROV-1
[7] = test system: MOLT-4
[8] = test system: NCI-H23
[9] = test system: OVCAR-3
[10] = test system: OVCAR-4
[11] = test system: RPMI-8226
[12] = test system: SF-539
[13] = test system: SK-MEL-2
[14] = test system: SK-OV-3
[15] = test system: SW-620
[16] = test system: UACC-257
[17] = test system: UACC-62
[18] = test system: UO-31
[19] = test system: SF-295

Measured: GI50

COc1cc(C2SCC(=O)N2c2ccc(-c3ccc(-n4c(-c5ccccc5)nc5ccccc5c4=O)cc3)cc2)cc(OC)c1OC (configuration not stated)
inactive: [1] 19.1 µM | [2] 78 µM | [3] 13.1 µM | [4] 33.3 µM | [5] 20 µM | [6] 19 µM | [7] 21.1 µM | [8] 73.1 µM | [9] 18.5 µM | [10] 10.4 µM | [11] > 100 µM | [12] 30.3 µM | [13] 22.2 µM | [14] 57.3 µM | [15] 17.3 µM | [16] 8.04 µM | [17] 21.2 µM | [18] 25.2 µM

CC(C)(CN1CCCCC1)C(=O)CC(SCCS(=O)(=O)O)c1ccccc1 (configuration not stated)
inactive: [1] 15.5 µM | [2] 11.2 µM | [3] 5.9 µM | [4] 11.4 µM | [5] 36.1 µM | [6] 26.4 µM | [7] 11.3 µM | [8] > 10 µM | [9] 5.87 µM | [10] 17.6 µM | [11] 23.2 µM | [19] 10.9 µM | [12] 12.6 µM | [13] 37.9 µM | [14] 55 µM | [15] 11.1 µM | [17] 14 µM | [18] 12.1 µM

CCCCCC(C/C=N/N(C)C)C(O)(C(F)(F)F)C(F)(F)F (configuration not stated)
inactive: [1] 43.6 µM | [2] 33.3 µM | [3] 32 µM | [4] 29 µM | [5] 35.6 µM | [6] 19 µM | [7] 29.4 µM | [8] 25.2 µM | [9] 9.31 µM | [10] 53.2 µM | [11] 11.3 µM | [19] 42.5 µM | [12] 35.2 µM | [13] 25.9 µM | [14] 33.9 µM | [15] 38 µM | [17] 59.8 µM | [18] 36.2 µM

O=C1CC(c2cccc(Cl)c2)n2cccc21 (configuration not stated)
inactive: [1] 54.6 µM | [2] > 100 µM | [3] > 100 µM | [4] > 100 µM | [5] 31.8 µM | [7] 70 µM | [8] > 100 µM | [9] > 100 µM | [10] > 100 µM | [11] > 100 µM | [19] > 100 µM | [12] > 100 µM | [13] 37.8 µM | [14] > 100 µM | [15] > 100 µM | [16] > 100 µM | [17] > 100 µM | [18] 26.5 µM

— ChEMBL document CHEMBL1201862, “PubChem BioAssay data set” (2004)
